Molecules are shown by their SMILES. Like-named read-outs stand apart in the source and are kept apart here.

The target in test [1] is GSK3α (GST-full length GSK3α) (Homo sapiens (Human), UniProt P49840). As to the kind of experiment: GSK3α TR-FRET kinase assay. In kind it is biochemical. The method in brief: (§1)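 In this time-resolved FRET format, kinase reactions contained 200 nM biotinylated, S645-phosphorylated glycogen synthase 631-650 peptide and either isoform-specific ATP (2 μM GSK3b, 4 μM GSK3α) or 1 mM ATP. They were quenched with EDTA after 100 min at ambient temperature. Inhibition curves gave IC50 values.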
For orientation: In TR-FRET formats the signal depends on donor and acceptor labels being close together.

In test [2] the target is GSK3b (GST-full length GSK3b) (Homo sapiens (Human), UniProt P49841). Kind of test: GSK3b TR-FRET kinase assay. In kind it is biochemical. The method in brief:
as §1

[3] abbreviates: 1 nM GSK3α, 4 μM ATP, 30 minute preincubation, geometric mean, read-out: GSK3-A TR-FRET BIOCHEMICAL (TR-FRET), GMean, IC50.
Setting [4] is: 1 nM GSK3b, 2 μM ATP, 30 minute preincubation, geometric mean, read-out: GSK3-B TR-FRET BIOCHEMICAL (TR-FRET), GMean, IC50.
Setting [5] is: 1 nM GSK3α, 4 μM ATP, 30 minute preincubation, Table 16, read-out: GSK3-A TR-FRET BIOCHEMICAL (TR-FRET).
[6] abbreviates: 1 nM GSK3b, 2 μM ATP, 30 minute preincubation, Table 16, read-out: GSK3-B TR-FRET BIOCHEMICAL (TR-FRET).
The mark [7] stands for this setting: 1 nM GSK3α, 4 μM ATP, 30 minute preincubation, read-out: GSK3-A TR-FRET BIOCHEMICAL (TR-FRET), IC50.
Where [8] appears, read: 1 nM GSK3b, 2 μM ATP, 30 minute preincubation, read-out: GSK3-B TR-FRET BIOCHEMICAL (TR-FRET), IC50.
Where [9] appears, read: 1 nM GSK3α, 4 μM ATP, 30 minute preincubation, Table 16, read-out: GSK3-A TR-FRET BIOCHEMICAL (TR-FRET), IC50.
[10] abbreviates: read-out: GSK3-A (TR-FRET 1 mM ATP), GMean, IC50, 1 mM ATP, geometric mean.
Setting [11] is: 1 nM GSK3b, 2 μM ATP, 30 minute preincubation, Table 16, read-out: GSK3-B TR-FRET BIOCHEMICAL (TR-FRET), IC50.
Where [12] appears, read: read-out: GSK3-B (TR-FRET 1 mM ATP), GMean, IC50, 1 mM ATP, geometric mean.
Setting [13] is: GSK3-A (TR-FRET 1 mM ATP), GMean, IC50, 1 mM ATP, geometric mean.
The mark [14] stands for this setting: GSK3-B (TR-FRET 1 mM ATP), GMean, IC50, 1 mM ATP, geometric mean.

GSK3b (GST-full length GSK3b), sequence (P49841 whole entry): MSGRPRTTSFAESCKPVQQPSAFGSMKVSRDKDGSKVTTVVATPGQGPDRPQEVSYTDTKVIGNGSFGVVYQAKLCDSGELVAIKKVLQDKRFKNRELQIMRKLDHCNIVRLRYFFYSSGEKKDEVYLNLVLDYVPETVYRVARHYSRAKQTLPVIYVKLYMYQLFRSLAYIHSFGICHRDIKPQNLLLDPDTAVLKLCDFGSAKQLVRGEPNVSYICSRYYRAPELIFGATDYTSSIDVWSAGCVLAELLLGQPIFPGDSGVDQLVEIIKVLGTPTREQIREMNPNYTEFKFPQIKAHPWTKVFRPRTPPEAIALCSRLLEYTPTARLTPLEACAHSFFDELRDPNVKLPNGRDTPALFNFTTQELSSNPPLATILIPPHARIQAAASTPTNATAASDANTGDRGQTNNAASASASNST
GSK3α (GST-full length GSK3α), sequence (P49840 whole entry, canonical isoform): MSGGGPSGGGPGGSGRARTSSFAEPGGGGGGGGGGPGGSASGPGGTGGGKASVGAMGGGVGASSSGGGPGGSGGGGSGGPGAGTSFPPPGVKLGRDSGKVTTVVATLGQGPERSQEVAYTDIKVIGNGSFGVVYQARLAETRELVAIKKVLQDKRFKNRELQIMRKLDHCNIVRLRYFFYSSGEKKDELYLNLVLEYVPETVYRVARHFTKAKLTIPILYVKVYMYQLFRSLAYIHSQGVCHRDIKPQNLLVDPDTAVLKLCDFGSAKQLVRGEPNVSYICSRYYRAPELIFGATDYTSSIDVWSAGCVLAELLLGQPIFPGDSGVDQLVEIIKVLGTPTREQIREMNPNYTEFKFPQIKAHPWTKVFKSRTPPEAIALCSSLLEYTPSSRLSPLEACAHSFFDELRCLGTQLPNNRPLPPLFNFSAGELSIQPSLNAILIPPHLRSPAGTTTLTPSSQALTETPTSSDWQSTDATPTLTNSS

Regarding `CC[C@@]1(c2cccc(OC)c2)C2=C(CC(C)(C)CC2=O)Nc2n[nH]cc21` [Compound 811561], the IC50 in test [1] (setting [3]) was 1 to 5 µM; in test [2] (setting [4]) it was over 5 µM.

As for `CC[C@]1(c2cccc(S(=O)(=O)CCOC)c2)C2=C(CC(C)(C)CC2=O)Nc2n[nH]cc21` [Compound 943546], the IC50 is 1 to 5 µM in test [1] (setting [5]) and over 5 µM in test [2] (setting [6]).

As for `CCC1(c2cccc(CN(C)C(=O)COC)c2)C2=C(CC(C)(C)CC2=O)Nc2n[nH]cc21` (stereo not drawn) [Compound 865196], the IC50 in test [1] (setting [3]) is 0.1 to 1 µM; in test [2] (setting [4]) it was over 5 µM.

As for `CCC1(c2cccc(C(F)(F)F)c2)C2=C(CC(C)NC2=O)Nc2n[nH]cc21` (stereo not drawn) [Compound 911956], the IC50 in test [1] (setting [7]) was at most 0.1 µM; in test [2] (setting [8]), 0.1 to 1 µM.

Turning to `CC[C@]1(c2cccc(-c3c(C)nn(C)c3C)c2)C2=C(CC(C)(C)CC2=O)Nc2n[nH]c(C)c21` [Compound 913043], the IC50 in test [1] (setting [9]) was at most 0.1 µM; in test [1] (setting [10]), at most 0.1 µM; in test [2] (setting [11]), at most 0.1 µM; in test [2] (setting [12]), 0.1 to 1 µM.

Regarding `CCC1(c2cccc(-c3ccncc3F)c2)C2=C(CC(C)(C)CC2=O)Nc2n[nH]c(C(F)(F)F)c21` (stereo not drawn) [Compound 945528], the IC50 in test [1] (setting [5]) is at most 0.1 µM; in test [1] (setting [10]), at most 0.1 µM; in test [2] (setting [6]), at most 0.1 µM; in test [2] (setting [12]) it was 0.1 to 1 µM.

On to `Cn1ccc(S(=O)(=O)N2CCC[C@]3(CC2)C2=C(CC(C)(C)CC2=O)Nc2n[nH]cc23)n1` [Compound 932660], for which the IC50 in test [1] (setting [5]) was at most 0.1 µM; in test [2] (setting [6]) it was 0.1 to 1 µM.

Take `CC[C@]1(c2cccc(-c3cnn(C(C)C)c3F)c2)C2=C(CC(C)(C)NC2=O)Nc2n[nH]cc21` [Compound 950061]: the IC50 was 0.1 to 1 µM in test [1] (setting [9]) and over 5 µM in test [2] (setting [11]).

Consider `CC1(C)CC(=O)C2=C(C1)Nc1n[nH]c(Br)c1C21CCc2c(F)cccc21` (stereo not drawn) [Compound 801358], for which the IC50 in test [1] (setting [3]) and in test [2] (setting [4]) was at most 0.1 µM throughout.

Turning to `CCC1(c2cccc(N3CCCC3=O)c2)C2=C(CC(C)(C)CC2=O)Nc2n[nH]cc21` (stereo not drawn) [Compound 865171], the IC50 in test [1] (setting [3]) was at most 0.1 µM; in test [2] (setting [4]) it was 0.1 to 1 µM.

In the case of `CC1(C)CC(=O)C2=C(C1)Nc1n[nH]cc1C21CN(S(=O)(=O)C2CCCC2)C1` [Compound 917139], the IC50 in test [1] (setting [5]) was at most 0.1 µM; in test [1] (setting [13]), 0.1 to 1 µM; in test [2] (setting [6]) it was at most 0.1 µM; in test [2] (setting [14]), 0.1 to 1 µM.

Take `CO[C@H]1C[C@]2(C1)C1=C(CC(C)(C)CC1=O)Nc1n[nH]cc12` [Compound 901473]: the IC50 in test [1] (setting [9]) and in test [2] (setting [11]) was over 5 µM throughout.

As for `CCC1(c2cccc(N3CCCCC3)c2)C2=C(CC(C)(C)CC2=O)Nc2n[nH]c(C)c21` (stereo not drawn) [Compound 877311], the IC50 in test [1] (setting [3]) and in test [2] (setting [4]) was at most 0.1 µM throughout.

For `CCC1(c2cccc(C(F)(F)F)c2)C2=C(CN(c3ccccc3)C2=O)Nc2n[nH]cc21` (stereo not drawn) [Compound 945377], the IC50 fell in the range of 0.1 to 1 µM in test [1] (setting [7]) and 1 to 5 µM in test [2] (setting [8]).

For the compound `COC[C@H]1C[C@]2(C1)C1=C(CC(C)(C)CC1=O)Nc1n[nH]cc12` [Compound 912173], the IC50 in test [1] (setting [5]) and in test [2] (setting [6]) was 0.1 to 1 µM each time.

With `CCC1(c2cccc(S(=O)(=O)C3CC(F)(F)C3)c2)C2=C(CC(C)(C)CC2=O)Nc2n[nH]cc21` (stereo not drawn) [Compound 944019], the IC50 in test [1] (setting [5]) and in test [2] (setting [6]) was at most 0.1 µM each time.

Take `CC1CCCC1C(=O)N1CC2(C1)CC1(CO2)C2=C(CC(C)(C)CC2=O)Nc2n[nH]cc21` (stereo not drawn) [Compound 947274]: the IC50 in test [1] (setting [7]) was at most 0.1 µM; in test [2] (setting [8]), 0.1 to 1 µM.

For `Cn1cc(S(=O)(=O)N2CC[C@]3(C2)C2=C(CC(C)(C)CC2=O)Nc2n[nH]cc23)cn1` [Compound 951725], the IC50 is at most 0.1 µM in test [1] (setting [5]), 0.1 to 1 µM in test [1] (setting [13]), at most 0.1 µM in test [2] (setting [6]) and 1 to 5 µM in test [2] (setting [14]).

Turning to `CC[C@]1(c2ccccc2)C2=C(C[C@]3(CCCOC3)CC2=O)Nc2n[nH]cc21` [Compound 816877], the IC50 in test [1] (setting [3]) and in test [2] (setting [4]) was over 5 µM each time.

Regarding `Cc1ccc(C(=O)N2CC3(C2)C[C@]2(CO3)C3=C(CC(C)(C)CC3=O)Nc3n[nH]cc32)cc1C` [Compound 948039], the IC50 in test [1] (setting [7]) was in the range of 0.1 to 1 µM; in test [2] (setting [8]) it was 1 to 5 µM.

With `CC[C@]1(c2cccc(-c3cnn(C(C)(C)C)c3)c2)C2=C(CC(C)(C)NC2=O)Nc2n[nH]cc21` [Compound 949112], the IC50 is at most 0.1 µM in test [1] (setting [3]), over 5 µM in test [1] (setting [10]), 0.1 to 1 µM in test [2] (setting [4]) and over 5 µM in test [2] (setting [12]).

With `CC[C@@]1(c2cccc(N(C)c3cncnc3)c2)C2=C(CC(C)(C)CC2=O)Nc2n[nH]cc21` [Compound 915400], the IC50 in test [1] (setting [9]) and in test [2] (setting [11]) was at most 0.1 µM throughout.

In the case of `CC1(C)CC(=O)C2=C(C1)Nc1n[nH]cc1C21COC2(CN(C(=O)C3CC(C)(C)C3)C2)C1` (stereo not drawn) [Compound 947282], the IC50 in test [1] (setting [7]) was at most 0.1 µM; in test [2] (setting [8]), 0.1 to 1 µM.

Consider `CC1(C)CC(=O)C2=C(C1)Nc1n[nH]cc1C21CCN(c2ccncc2)CC1` [Compound 880765], for which the IC50 in test [1] (setting [9]) and in test [2] (setting [11]) was over 5 µM each time.

`CC[C@]1(c2cccc(-c3ccnc(C)c3)c2)C2=C(C[C@]3(CCOC3)NC2=O)Nc2n[nH]cc21` [Compound 948149]: the IC50 was at most 0.1 µM in test [1] (setting [3]) and 0.1 to 1 µM in test [2] (setting [4]).

For `CC1(C)CC(=O)C2=C(C1)Nc1n[nH]c(C3CC(F)(F)C3)c1C21COc2ccccc21` (stereo not drawn) [Compound 127429], the IC50 is over 5 µM in test [1] (setting [10]) and 1 to 5 µM in test [2] (setting [12]).

Regarding `CC1(C)CC(=O)C2=C(C1)Nc1n[nH]cc1C21CCCC1` [Compound 790666], the IC50 in test [1] (setting [5]) and in test [2] (setting [6]) was at most 0.1 µM each time.

Regarding `Cn1nccc1S(=O)(=O)N1CCC2(CC1)C1=C(CC(C)(C)CC1=O)Nc1n[nH]cc12` [Compound 932649], the IC50 in test [1] (setting [5]) and in test [2] (setting [6]) was at most 0.1 µM throughout.

As to `CCC1(c2cccc(C(F)(F)F)c2)C2=C(CCN(CC(F)(F)F)C2=O)Nc2n[nH]cc21` (stereo not drawn) [Compound 912206], the IC50 is at most 0.1 µM in test [1] (setting [7]) and 0.1 to 1 µM in test [2] (setting [8]).

As to `CCC1(c2cccc(-c3cnn(C)c3)c2)C2=C(CC(C)(C)CC2=O)Nc2n[nH]cc21` (stereo not drawn) [Compound 819577], the IC50 is at most 0.1 µM in test [1] (setting [3]), 0.1 to 1 µM in test [1] (setting [10]), 0.1 to 1 µM in test [2] (setting [4]) and over 5 µM in test [2] (setting [12]).

Regarding `CCN(C(C)=O)c1cccc(C2(CC)C3=C(CC(C)(C)CC3=O)Nc3n[nH]cc32)c1` (stereo not drawn) [Compound 884109], the IC50 in test [1] (setting [9]) and in test [2] (setting [11]) was at most 0.1 µM each time.

For the compound `CCC1(c2cccc(S(=O)(=O)C(C)C)c2)C2=C(CC(C)(C)NC2=O)Nc2n[nH]cc21` (stereo not drawn) [Compound 945464], the IC50 in test [1] (setting [7]) and in test [2] (setting [8]) was at most 0.1 µM throughout.

For the compound `CCC1(c2cccc(-c3c(F)cncc3OC)c2)C2=C(CC(C)(C)CC2=O)Nc2n[nH]cc21` (stereo not drawn) [Compound 945704], the IC50 in test [1] (setting [5]) is at most 0.1 µM; in test [1] (setting [10]) it was at most 0.1 µM; in test [2] (setting [6]), at most 0.1 µM; in test [2] (setting [12]) it was 0.1 to 1 µM.

As for `CCC1(c2cccc(N(C)c3ccc(F)nc3)c2)C2=C(CC(C)(C)CC2=O)Nc2n[nH]cc21` (stereo not drawn) [Compound 917152], the IC50 in test [1] (setting [9]) was at most 0.1 µM; in test [2] (setting [11]) it was 0.1 to 1 µM.

On to `CCC1(c2cccc(C(F)(F)F)c2)C2=C(CCN(c3ccc(C)cc3)C2=O)Nc2n[nH]cc21` (stereo not drawn) [Compound 948241], for which the results for the IC50 in test [1] (setting [3]) and in test [2] (setting [4]) were at most 0.1 µM and 0.1 to 1 µM, respectively.

Source of the values: patent US20250313563A1, “GLYCOGEN SYNTHASE KINASE 3 INHIBITORS AND USES THEREOF” (The Broad Institute, Inc., priority 2022, published 2025).
